Assay results as given in the kinase profiling compilation of Christmann-Franck et al. (2016).

Columns and labels:
Experiment in all cases: KINOMEscan competition binding
Conditions in all cases: compound 10.0 µM
[1] = target: ACVR2A (human) (UniProt P27037)
[2] = target: BRSK2 (human) (UniProt Q8IWQ3)
[3] = target: CDC42BPB (human) (UniProt Q9Y5S2)
[4] = target: CDK16 (human) (UniProt Q00536)
[5] = target: CSNK1E (human) (UniProt P49674)
[6] = target: EPHA3 (human) (UniProt P29320)
[7] = target: EPHB1 (human) (UniProt P54762)
[8] = target: FGR (human) (UniProt P09769)
[9] = tested on: FLT3 (human), P36888 [D835Y]
[10] = target: GAK (human) (UniProt O14976)
Sequence of GAK (human) (O14976 whole entry, looked up): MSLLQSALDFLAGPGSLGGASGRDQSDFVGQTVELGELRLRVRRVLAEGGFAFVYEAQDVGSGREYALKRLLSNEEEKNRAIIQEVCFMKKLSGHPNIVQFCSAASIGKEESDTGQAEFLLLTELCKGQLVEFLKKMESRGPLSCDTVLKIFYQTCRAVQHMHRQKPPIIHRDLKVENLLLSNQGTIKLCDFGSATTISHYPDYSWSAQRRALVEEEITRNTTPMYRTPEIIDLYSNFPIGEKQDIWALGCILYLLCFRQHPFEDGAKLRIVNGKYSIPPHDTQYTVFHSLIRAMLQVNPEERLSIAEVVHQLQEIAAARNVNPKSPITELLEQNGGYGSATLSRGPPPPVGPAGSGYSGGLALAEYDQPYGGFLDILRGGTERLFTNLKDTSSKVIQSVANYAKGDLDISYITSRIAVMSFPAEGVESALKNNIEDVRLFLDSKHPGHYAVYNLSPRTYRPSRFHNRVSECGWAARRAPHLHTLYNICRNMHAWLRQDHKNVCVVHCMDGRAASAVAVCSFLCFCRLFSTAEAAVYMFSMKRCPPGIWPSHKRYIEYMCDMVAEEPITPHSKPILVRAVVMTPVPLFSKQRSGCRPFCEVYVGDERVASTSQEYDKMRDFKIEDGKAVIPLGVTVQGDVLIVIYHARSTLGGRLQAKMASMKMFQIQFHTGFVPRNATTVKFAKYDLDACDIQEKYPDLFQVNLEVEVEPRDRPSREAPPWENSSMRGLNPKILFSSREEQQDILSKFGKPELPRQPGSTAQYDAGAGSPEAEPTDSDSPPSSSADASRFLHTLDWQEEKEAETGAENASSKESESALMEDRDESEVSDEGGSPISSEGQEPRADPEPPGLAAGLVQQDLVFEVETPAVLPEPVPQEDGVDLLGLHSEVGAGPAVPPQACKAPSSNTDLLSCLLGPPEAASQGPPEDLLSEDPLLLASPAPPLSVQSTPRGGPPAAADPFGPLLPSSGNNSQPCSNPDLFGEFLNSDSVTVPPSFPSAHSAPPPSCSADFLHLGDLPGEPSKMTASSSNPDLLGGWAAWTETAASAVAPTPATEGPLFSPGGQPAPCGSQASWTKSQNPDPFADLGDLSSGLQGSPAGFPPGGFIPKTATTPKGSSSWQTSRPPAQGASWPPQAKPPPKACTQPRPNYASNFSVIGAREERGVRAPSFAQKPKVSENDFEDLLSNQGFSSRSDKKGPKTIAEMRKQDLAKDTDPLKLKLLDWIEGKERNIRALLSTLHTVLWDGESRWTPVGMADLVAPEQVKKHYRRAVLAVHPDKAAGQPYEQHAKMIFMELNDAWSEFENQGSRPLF

[11] = target: GSK3A (human) (UniProt P49840)
[12] = target: IKBKE (human) (UniProt Q14164)
[13] = target: KIT (human) (UniProt P10721)
[14] = target: MAP2K3 (human) (UniProt P46734)
[15] = target: MAP3K11 (human) (UniProt Q16584)
[16] = target: MAPK11 (human) (UniProt Q15759)
Sequence of MAPK11 (human) (Q15759 whole entry, looked up): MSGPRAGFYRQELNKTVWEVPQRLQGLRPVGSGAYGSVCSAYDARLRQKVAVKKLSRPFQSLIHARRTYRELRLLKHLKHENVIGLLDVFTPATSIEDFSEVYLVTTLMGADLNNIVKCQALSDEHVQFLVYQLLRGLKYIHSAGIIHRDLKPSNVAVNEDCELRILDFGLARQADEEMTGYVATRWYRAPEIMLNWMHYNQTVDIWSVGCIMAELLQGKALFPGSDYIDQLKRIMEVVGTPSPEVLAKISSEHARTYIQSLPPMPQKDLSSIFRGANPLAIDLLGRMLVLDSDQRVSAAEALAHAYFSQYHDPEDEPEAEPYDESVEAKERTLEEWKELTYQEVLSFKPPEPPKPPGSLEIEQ

[17] = target: MAPK12 (human) (UniProt P53778)
Sequence of MAPK12 (human) (P53778 whole entry, looked up): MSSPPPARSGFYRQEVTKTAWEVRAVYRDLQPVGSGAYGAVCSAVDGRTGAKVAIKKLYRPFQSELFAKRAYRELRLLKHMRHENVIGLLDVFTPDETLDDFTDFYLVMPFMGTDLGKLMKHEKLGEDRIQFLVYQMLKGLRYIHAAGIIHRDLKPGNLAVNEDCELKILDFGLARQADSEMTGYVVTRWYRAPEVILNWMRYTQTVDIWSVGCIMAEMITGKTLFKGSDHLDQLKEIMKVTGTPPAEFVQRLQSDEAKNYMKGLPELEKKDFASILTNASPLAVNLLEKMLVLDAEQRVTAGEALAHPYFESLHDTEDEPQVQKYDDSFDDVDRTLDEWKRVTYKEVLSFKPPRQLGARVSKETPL

[18] = target: MARK2 (human) (UniProt Q7KZI7)
Sequence of MARK2 (human) (Q7KZI7 whole entry, looked up): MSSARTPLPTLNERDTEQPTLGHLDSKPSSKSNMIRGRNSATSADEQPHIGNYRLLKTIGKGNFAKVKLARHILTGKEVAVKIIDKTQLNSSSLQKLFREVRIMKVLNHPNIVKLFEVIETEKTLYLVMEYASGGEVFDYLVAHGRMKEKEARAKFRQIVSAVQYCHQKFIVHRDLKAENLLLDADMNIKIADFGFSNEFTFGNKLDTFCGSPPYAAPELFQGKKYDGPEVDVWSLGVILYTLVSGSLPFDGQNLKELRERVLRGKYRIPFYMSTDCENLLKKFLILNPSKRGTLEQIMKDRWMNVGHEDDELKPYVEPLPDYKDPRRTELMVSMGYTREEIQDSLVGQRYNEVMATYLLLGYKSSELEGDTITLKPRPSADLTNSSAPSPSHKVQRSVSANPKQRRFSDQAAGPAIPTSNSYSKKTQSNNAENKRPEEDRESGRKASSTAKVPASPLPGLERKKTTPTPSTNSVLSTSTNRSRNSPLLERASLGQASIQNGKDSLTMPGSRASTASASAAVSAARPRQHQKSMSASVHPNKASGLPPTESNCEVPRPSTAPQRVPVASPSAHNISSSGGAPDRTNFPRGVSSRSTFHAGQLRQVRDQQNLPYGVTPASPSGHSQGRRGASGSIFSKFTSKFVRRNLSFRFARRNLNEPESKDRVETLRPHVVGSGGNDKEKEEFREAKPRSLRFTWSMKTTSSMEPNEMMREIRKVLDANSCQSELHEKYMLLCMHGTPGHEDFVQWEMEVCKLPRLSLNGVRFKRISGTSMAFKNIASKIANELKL

[19] = target: MST4 (human) (UniProt Q9P289)
[20] = target: NEK6 (human) (UniProt Q9HC98)
Sequence of NEK6 (human) (Q9HC98 whole entry, looked up): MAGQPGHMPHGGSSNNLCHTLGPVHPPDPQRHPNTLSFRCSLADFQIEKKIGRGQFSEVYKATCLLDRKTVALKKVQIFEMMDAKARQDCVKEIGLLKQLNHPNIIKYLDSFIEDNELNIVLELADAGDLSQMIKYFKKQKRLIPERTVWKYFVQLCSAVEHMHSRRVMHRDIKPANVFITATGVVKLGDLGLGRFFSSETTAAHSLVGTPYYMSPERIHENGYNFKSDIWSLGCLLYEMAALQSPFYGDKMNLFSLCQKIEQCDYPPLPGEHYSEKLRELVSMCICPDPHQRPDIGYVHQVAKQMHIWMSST

[21] = target: NTRK1 (human) (UniProt P04629)
[22] = target: PDGFRA (human) (UniProt P16234)
[23] = target: PLK1 (human) (UniProt P53350)
[24] = target: PRKACA (human) (UniProt P17612)
[25] = target: PRKCE (human) (UniProt Q02156)
[26] = target: RAF1 (human) (UniProt P04049)
[27] = target: RIOK1 (human) (UniProt Q9BRS2)
[28] = target: RIPK1 (human) (UniProt Q13546)
[29] = target: RPS6KA2 KD2 (human) (UniProt Q15349)
[30] = target: SRMS (human) (UniProt Q9H3Y6)
[31] = target: STK10 (human) (UniProt O94804)
[32] = target: TESK1 (human) (UniProt Q15569)
[33] = target: TNK1 (human) (UniProt Q13470)
[34] = target: TXK (human) (UniProt P42681)
[35] = target: TYK2 JH1 catalytic (human) (UniProt P29597)
Sequence of TYK2 JH1 catalytic (human) (P29597 whole entry, looked up): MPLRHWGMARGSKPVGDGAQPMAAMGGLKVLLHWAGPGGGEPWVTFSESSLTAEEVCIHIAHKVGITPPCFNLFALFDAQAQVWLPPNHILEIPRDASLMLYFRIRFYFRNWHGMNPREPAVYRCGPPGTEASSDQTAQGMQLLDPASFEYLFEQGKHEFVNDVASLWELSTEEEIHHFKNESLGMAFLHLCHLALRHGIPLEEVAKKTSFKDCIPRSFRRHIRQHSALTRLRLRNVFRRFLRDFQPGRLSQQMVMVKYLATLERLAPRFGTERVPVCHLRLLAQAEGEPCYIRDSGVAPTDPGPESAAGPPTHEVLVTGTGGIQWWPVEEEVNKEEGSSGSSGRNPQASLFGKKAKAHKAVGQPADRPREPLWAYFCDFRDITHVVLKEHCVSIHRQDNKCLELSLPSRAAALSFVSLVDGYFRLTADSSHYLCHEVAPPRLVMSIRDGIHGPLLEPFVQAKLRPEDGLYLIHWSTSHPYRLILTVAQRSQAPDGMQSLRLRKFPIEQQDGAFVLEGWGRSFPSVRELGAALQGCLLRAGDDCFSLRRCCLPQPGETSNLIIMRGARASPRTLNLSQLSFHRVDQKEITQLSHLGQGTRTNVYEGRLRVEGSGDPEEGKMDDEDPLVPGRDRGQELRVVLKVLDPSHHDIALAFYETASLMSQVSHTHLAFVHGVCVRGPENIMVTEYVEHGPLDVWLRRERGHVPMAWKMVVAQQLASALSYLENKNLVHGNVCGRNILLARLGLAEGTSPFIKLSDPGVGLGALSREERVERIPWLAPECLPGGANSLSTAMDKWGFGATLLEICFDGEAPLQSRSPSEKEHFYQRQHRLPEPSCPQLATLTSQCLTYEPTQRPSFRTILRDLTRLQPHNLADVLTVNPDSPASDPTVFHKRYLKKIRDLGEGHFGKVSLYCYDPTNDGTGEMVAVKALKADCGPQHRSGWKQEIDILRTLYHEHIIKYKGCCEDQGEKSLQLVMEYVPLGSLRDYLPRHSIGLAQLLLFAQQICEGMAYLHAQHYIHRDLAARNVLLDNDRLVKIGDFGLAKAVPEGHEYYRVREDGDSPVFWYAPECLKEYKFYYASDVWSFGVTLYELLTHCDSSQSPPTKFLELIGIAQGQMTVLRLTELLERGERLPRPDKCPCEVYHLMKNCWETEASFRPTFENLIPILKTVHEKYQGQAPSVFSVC

[36] = target: CDKL3 (human) (UniProt Q8IVW4)
[37] = target: HIPK1 (human) (UniProt Q86Z02)
[38] = target: YSK4 (human) (UniProt Q56UN5)

Sequence of BRSK2 (human) (Q8IWQ3 whole entry, looked up): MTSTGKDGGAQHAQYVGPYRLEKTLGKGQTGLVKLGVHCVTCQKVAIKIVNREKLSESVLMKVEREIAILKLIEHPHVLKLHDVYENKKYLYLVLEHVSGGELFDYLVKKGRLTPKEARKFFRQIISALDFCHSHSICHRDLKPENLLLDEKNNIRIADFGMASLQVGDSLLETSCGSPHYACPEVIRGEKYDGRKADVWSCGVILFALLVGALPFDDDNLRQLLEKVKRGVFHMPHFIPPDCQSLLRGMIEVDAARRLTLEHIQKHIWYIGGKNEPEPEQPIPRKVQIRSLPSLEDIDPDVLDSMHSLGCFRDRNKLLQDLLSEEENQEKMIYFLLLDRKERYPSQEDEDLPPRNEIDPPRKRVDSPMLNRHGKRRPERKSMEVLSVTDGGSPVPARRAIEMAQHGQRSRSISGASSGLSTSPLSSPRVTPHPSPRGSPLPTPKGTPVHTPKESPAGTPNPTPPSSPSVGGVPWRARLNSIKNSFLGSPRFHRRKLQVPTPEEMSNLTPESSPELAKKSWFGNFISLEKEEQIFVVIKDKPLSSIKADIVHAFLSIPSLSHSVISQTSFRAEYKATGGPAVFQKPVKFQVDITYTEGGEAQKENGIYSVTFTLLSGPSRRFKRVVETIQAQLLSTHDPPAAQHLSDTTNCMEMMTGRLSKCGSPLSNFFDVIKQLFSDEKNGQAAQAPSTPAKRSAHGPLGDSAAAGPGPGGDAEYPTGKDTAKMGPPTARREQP

| SMILES | kinase still bound, per cent of control [1] [%] | kinase still bound, per cent of control [2] [%] | kinase still bound, per cent of control [3] [%] | kinase still bound, per cent of control [4] [%] | kinase still bound, per cent of control [5] [%] | kinase still bound, per cent of control [6] [%] | kinase still bound, per cent of control [7] [%] | kinase still bound, per cent of control [8] [%] | kinase still bound, per cent of control [9] [%] | kinase still bound, per cent of control [10] [%] | kinase still bound, per cent of control [11] [%] | kinase still bound, per cent of control [12] [%] | kinase still bound, per cent of control [13] [%] | kinase still bound, per cent of control [14] [%] | kinase still bound, per cent of control [15] [%] | kinase still bound, per cent of control [16] [%] | kinase still bound, per cent of control [17] [%] | kinase still bound, per cent of control [18] [%] | kinase still bound, per cent of control [19] [%] | kinase still bound, per cent of control [20] [%] | also measured |
| --- | --- | --- | --- | --- | --- | --- | --- | --- | --- | --- | --- | --- | --- | --- | --- | --- | --- | --- | --- | --- | --- |
| COc1ccc(N(C(=O)Oc2cc(C(=O)Nc3cccc(C(F)(F)F)c3)ccc2C)c2ccnc(Nc3ccc(N4CCN(C)CC4)cc3)n2)c(OC)c1 | 100 | 100 | 100 | 100 | 100 | 0.1 | 0.15 | 1.2 | 100 | 26 | 100 | 100 | 0.8 | 100 | 100 | 1.9 | 100 | 100 | 100 | 100 | kinase still bound, per cent of control [21]: 27%; kinase still bound, per cent of control [22]: 8.6%; kinase still bound, per cent of control [23]: 100%; kinase still bound, per cent of control [24]: 33%; kinase still bound, per cent of control [25]: 100%; kinase still bound, per cent of control [26]: 23%; kinase still bound, per cent of control [27]: 100%; kinase still bound, per cent of control [28]: 100%; kinase still bound, per cent of control [29]: 100%; kinase still bound, per cent of control [30]: 0%; kinase still bound, per cent of control [31]: 0%; kinase still bound, per cent of control [32]: 3.8%; kinase still bound, per cent of control [33]: 1.6%; kinase still bound, per cent of control [34]: 0.65%; kinase still bound, per cent of control [35]: 27% |
| CCOc1cc(N2CCC(O)CC2)ccc1Nc1ncc2c(n1)N(C)c1ccccc1C(=O)N2C | 100 | 100 | 100 | 100 | 100 | 100 | 100 | 100 | 100 | 31 | 100 | 100 | 100 | 100 | 100 | 100 | 100 | 100 | 100 | 100 | kinase still bound, per cent of control [36]: 100%; kinase still bound, per cent of control [37]: 100%; kinase still bound, per cent of control [21]: 100%; kinase still bound, per cent of control [22]: 100%; kinase still bound, per cent of control [23]: 100%; kinase still bound, per cent of control [24]: 100%; kinase still bound, per cent of control [25]: 100%; kinase still bound, per cent of control [26]: 100%; kinase still bound, per cent of control [27]: 100%; kinase still bound, per cent of control [28]: 100%; kinase still bound, per cent of control [29]: 100%; kinase still bound, per cent of control [30]: 100%; kinase still bound, per cent of control [31]: 100%; kinase still bound, per cent of control [32]: 100%; kinase still bound, per cent of control [33]: 7.8%; kinase still bound, per cent of control [34]: 100%; kinase still bound, per cent of control [35]: 100%; kinase still bound, per cent of control [38]: 100% |
| COc1cc(N2CCC(C(N)=O)CC2)ccc1Nc1nc(N)c(Cl)c(Nc2ccccc2S(=O)(=O)C(C)C)n1 | 100 | 100 | 100 | 100 | 34 | 100 | 100 | 100 | 5.2 | 2.5 | 100 | 100 | 100 | 23 | 100 | 100 | 100 | 100 | 100 | 100 | kinase still bound, per cent of control [37]: 100%; kinase still bound, per cent of control [21]: 100%; kinase still bound, per cent of control [22]: 100%; kinase still bound, per cent of control [23]: 21%; kinase still bound, per cent of control [24]: 100%; kinase still bound, per cent of control [25]: 100%; kinase still bound, per cent of control [26]: 100%; kinase still bound, per cent of control [27]: 100%; kinase still bound, per cent of control [28]: 100%; kinase still bound, per cent of control [29]: 18%; kinase still bound, per cent of control [30]: 7.3%; kinase still bound, per cent of control [31]: 100%; kinase still bound, per cent of control [32]: 100%; kinase still bound, per cent of control [33]: 3.8%; kinase still bound, per cent of control [34]: 100%; kinase still bound, per cent of control [35]: 100% |
| COc1cc(C)c(Sc2cnc(NC(=O)c3ccc(CNC(C)C(C)C)cc3)s2)cc1C(=O)N1CCN(C(C)=O)CC1 (stereo not given) | 100 | 100 | 100 | 100 | 100 | 25 | 24 | 100 | 26 | 100 | 100 | 100 | 100 | 100 | 100 | 100 | 100 | 100 | 100 | 34 | kinase still bound, per cent of control [37]: 100%; kinase still bound, per cent of control [21]: 20%; kinase still bound, per cent of control [22]: 100%; kinase still bound, per cent of control [23]: 100%; kinase still bound, per cent of control [24]: 100%; kinase still bound, per cent of control [25]: 100%; kinase still bound, per cent of control [26]: 100%; kinase still bound, per cent of control [27]: 100%; kinase still bound, per cent of control [28]: 100%; kinase still bound, per cent of control [29]: 100%; kinase still bound, per cent of control [30]: 100%; kinase still bound, per cent of control [31]: 13%; kinase still bound, per cent of control [32]: 100%; kinase still bound, per cent of control [33]: 100%; kinase still bound, per cent of control [34]: 100%; kinase still bound, per cent of control [35]: 100% |
